molecular target: T1, NLRP3 (Homo sapiens, UniProt Q96P20); assay: Measurement of IL-1β production (NLRP3 hIL1β EC50), PMA-differentiated THP-1 cells; assay type: cell-based; conditions: human IL-1β production; assayed using one or more of the described procedures
T1 construct: host or cells: PMA-differentiated THP-1 cells
Protocol: THP-1 cells were purchased from the American Type Culture Collection and sub-cultured according to instructions from the supplier. Prior to experiments, cells were cultured in RPMI 1640 containing 10% heat inactivated FBS, penicillin (100 units/ml) and streptomycin (100 μg/ml), and maintained in log phase prior to experimental setup. Prior to the experiment THIP-1 were treated with PMA (Phorbol 12-myristate 13-acetate) (10 μg/ml) for 24 hours. The day of the experiment the media was removed and attaching cells were treated with trypsin for 2 minutes, cells were then collected, washed with PBS (phosphate buffer saline), spin down, resuspended in 2% heat inactivated FBS with RPMI at a concentration of 1×10^6 cells/ml, and 100 μl was plated in a 96 well plate. Compounds were dissolved in dimethyl sulfoxide (DMSO) and added to the culture medium to achieve desired concentration (e.g. 100, 30, 10, 3, 1, 0.3 or 0.1 μM). Cells were incubated with compounds for 4 hours. Cell free supernatant was collected and the production of IL-1β was evaluated by ELISA. A vehicle only control was run concurrently with each experiment. Final DMSO concentration was 1%.
THP-1 cells were purchased from the American Type Culture Collection and sub-cultured according to instructions from the supplier. Prior to experiments, cells were cultured in RPMI 1640 containing 10% heat inactivated FBS, penicillin (100 units/ml), streptomycin (100 μg/ml), HEPES (10 mM) and sodium pyruvate (1 mM) and maintained in log phase prior to experimental setup. Prior to the experiment, THP-1 cells were treated with PMA (Phorbol 12-myristate 13-acetate) (20 μg/ml) overnight. The day of the experiment, the media was removed and attached cells were treated with trypsin for 2 minutes, cells were then collected, washed with PBS (phosphate buffer saline), pelleted by centrifugation and resuspended in 2% heat inactivated FBS with RPMI at a concentration of 50,000 cells/well in a 384 well plate. Cell free supernatant was collected and the production of IL-1β was evaluated by ELISA. Compounds were dissolved in dimethyl sulfoxide (DMSO) and added to the culture medium to achieve desired concentration (e.g. 100, 30, 10, 3, 1, 0.3 or 0.1 μM). Cells were incubated with compounds for 2 hours. A vehicle only control was run concurrently with each experiment. Final DMSO concentration was 1%.
Serial dilutions of compounds in DMSO were added to low volume 384 well plates at 100 nl/well using an ECHO 550 acoustic dispenser (Labcyte) to achieve final starting concentration of 10 μM in assay.
THP-1 cells in RPMI (Gibco, 11875) media with 10% FBS at a density of 1×10^6 cell/ml in a T175 flask were treated with a final concentration of phorbol 12-myristate 13-acetate (PMA) (Sigma,P1585) of 50 ng/ml overnight at 37° C. at 5% CO2 for differentiation. Cells were harvested the next day after rinsing well with dPBS using 0.5% trypsin. A cell solution was prepared of 1×10^6 cells/ml for 50,000 cells in 50 μl/well in RPMI media with 2% FBS. Cells were plated using a multichannel pipette onto the compound dilutions in Greiner, 384 well, black clear bottom tissue culture treated plates (781090). The plates were incubated in 37° C. incubator at 5% CO2 for 2 hours.
After the 2 hour incubation, the cell plates were spun in the centrifuge for 5 minutes at 1200 rpm. Using the Felix (CyBio), 8 μl of the supernatant was transferred to 384 well, low volume, white proxy plates. (Perkin Elmer, 6008230). A human IL1beta hTRF kit was used to analyze the supernatant (CISBIO, 62HIL1BPEG). The kit instructions were followed for preparing the IL1Beta standard curve and then the antibodies from the kit were diluted 1:40 rather than 1:20 as kit instructed. Once combined, the antibodies were added across the plates, 5 μl/well. The plates were sealed and incubated at 4° C. overnight. The plates were then read on the Perkin Elmer EnVision at 665/615 nm using the hTRF laser.

T1 sequence (Q96P20 whole entry): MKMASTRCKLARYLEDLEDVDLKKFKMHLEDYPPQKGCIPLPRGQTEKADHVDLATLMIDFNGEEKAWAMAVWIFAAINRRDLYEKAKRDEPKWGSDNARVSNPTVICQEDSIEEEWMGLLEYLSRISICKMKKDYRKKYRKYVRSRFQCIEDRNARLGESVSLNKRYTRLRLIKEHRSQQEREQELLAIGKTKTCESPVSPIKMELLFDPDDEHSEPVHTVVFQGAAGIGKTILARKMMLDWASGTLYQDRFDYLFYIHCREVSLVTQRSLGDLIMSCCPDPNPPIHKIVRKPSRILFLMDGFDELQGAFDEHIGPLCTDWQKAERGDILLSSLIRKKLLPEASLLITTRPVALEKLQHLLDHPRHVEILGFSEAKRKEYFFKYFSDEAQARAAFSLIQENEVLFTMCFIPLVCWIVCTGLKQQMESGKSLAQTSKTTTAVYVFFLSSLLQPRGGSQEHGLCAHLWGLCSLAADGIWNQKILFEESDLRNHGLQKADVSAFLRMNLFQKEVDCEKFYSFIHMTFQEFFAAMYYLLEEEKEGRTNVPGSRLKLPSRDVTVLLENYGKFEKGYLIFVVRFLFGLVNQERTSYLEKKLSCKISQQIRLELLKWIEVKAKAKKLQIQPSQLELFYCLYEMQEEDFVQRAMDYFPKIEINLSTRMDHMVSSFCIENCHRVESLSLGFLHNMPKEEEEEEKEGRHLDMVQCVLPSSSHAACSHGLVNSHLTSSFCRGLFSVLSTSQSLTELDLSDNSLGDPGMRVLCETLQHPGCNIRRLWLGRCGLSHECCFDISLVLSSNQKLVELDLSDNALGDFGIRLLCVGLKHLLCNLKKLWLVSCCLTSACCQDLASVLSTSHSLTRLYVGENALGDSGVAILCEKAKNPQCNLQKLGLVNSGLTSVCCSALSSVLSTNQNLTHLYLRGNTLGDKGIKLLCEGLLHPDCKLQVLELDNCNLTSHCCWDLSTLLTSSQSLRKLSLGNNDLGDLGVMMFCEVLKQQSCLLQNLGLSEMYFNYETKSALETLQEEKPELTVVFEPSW

| Compound | EC50 [nM] |
| --- | --- |
| CCn1c([C@H]2CCCN(C(=O)c3ccccc3)C2)nc2c(N)nc3cc(-c4cc[nH]n4)ccc3c21 [Example 46] | 180 |
| CCn1c([C@H]2CCCN(C(=O)CCOC)C2)nc2c(N)nc3cc(-c4cc[nH]n4)ccc3c21 [Example 47] | 640 |
| CCn1c([C@H]2CCCN(C(=O)C3CC3(F)F)C2)nc2c(N)nc3cc(-c4cc[nH]n4)ccc3c21 (some centres unmarked) [Example 48] | 80 |
| C#CCC(=O)N1CCC[C@H](c2nc3c(N)nc4cc(-c5cc[nH]n5)ccc4c3n2CC)C1 [Example 49] | 620 |
| CCn1c([C@H]2CCCN(C(=O)Cc3ccccc3)C2)nc2c(N)nc3cc(-c4cc[nH]n4)ccc3c21 [Example 50] | 220 |
| CC(=O)N1CCC[C@H](c2nc3c(N)nc4cc(-c5cc[nH]n5)ccc4c3n2C(C)C)C1 [Example 51] | 930 |
| CCCC(=O)N1CCC[C@H](c2nc3c(N)nc4cc(-c5cc[nH]n5)ccc4c3n2C(C)C)C1 [Example 52] | 380 |
| CC(C)CC(=O)N1CCC[C@H](c2nc3c(N)nc4cc(-c5cc[nH]n5)ccc4c3n2C(C)C)C1 [Example 53] | 230 |
| CC(C)n1c([C@H]2CCCN(C(=O)C3CCC3)C2)nc2c(N)nc3cc(-c4cc[nH]n4)ccc3c21 [Example 54] | 240 |
| CC(C)n1c([C@H]2CCCN(C(=O)C3(C#N)CC3)C2)nc2c(N)nc3cc(-c4cc[nH]n4)ccc3c21 [Example 55] | 230 |
| CC(C)n1c([C@H]2CCCN(C(=O)c3ccccc3)C2)nc2c(N)nc3cc(-c4cc[nH]n4)ccc3c21 [Example 56] | 300 |
| CC(C)n1c([C@H]2CCCN(C(=O)Cc3ccccc3)C2)nc2c(N)nc3cc(-c4cc[nH]n4)ccc3c21 [Example 57] | 400 |
| CC(C)n1c([C@H]2CCCN(C(=O)C3CC(F)(F)C3)C2)nc2c(N)nc3cc(-c4cc[nH]n4)ccc3c21 [Example 58] | 330 |
| COCCC(=O)N1CCC[C@H](c2nc3c(N)nc4cc(-c5cc[nH]n5)ccc4c3n2C(C)C)C1 [Example 59] | 970 |
| CC(C)C(=O)N1CCC[C@@H](c2nc3c(N)nc4cc(-c5cc[nH]n5)ccc4c3[nH]2)C1 [Example 60] | 4600 |
| CC(C)(C)C(=O)N1CCC[C@@H](c2nc3c(N)nc4cc(-c5cc[nH]n5)ccc4c3[nH]2)C1 [Example 61] | 2300 |
| CCCC(=O)N1CCC[C@@H](c2nc3c(N)nc4cc(-c5cc[nH]n5)ccc4c3[nH]2)C1 [Example 62] | 1200 |
| Nc1nc2cc(-c3cc[nH]n3)ccc2c2[nH]c([C@@H]3CCCN(C(=O)C4CC4(F)F)C3)nc12 (some centres unmarked) [Example 63] | 6600 |
| COCC(=O)N1CCC[C@@H](c2nc3c(N)nc4cc(-c5cc[nH]n5)ccc4c3[nH]2)C1 [Example 64] | 9900 |
| C#CCC(=O)N1CCC[C@@H](c2nc3c(N)nc4cc(-c5cc[nH]n5)ccc4c3[nH]2)C1 [Example 65] | 350 |
| CC(C)CC(=O)N1CCC[C@@H](c2nc3c(N)nc4cc(-c5cc[nH]n5)ccc4c3[nH]2)C1 [Example 66] | 3500 |
| Nc1nc2cc(-c3cc[nH]n3)ccc2c2[nH]c([C@@H]3CCCN(C(=O)c4ccccc4)C3)nc12 [Example 67] | 1800 |
| Nc1nc2cc(-c3cc[nH]n3)ccc2c2[nH]c([C@@H]3CCCN(C(=O)C4(C(F)(F)F)CC4)C3)nc12 [Example 68] | 2300 |
| N#CC1(C(=O)N2CCC[C@@H](c3nc4c(N)nc5cc(-c6cc[nH]n6)ccc5c4[nH]3)C2)CCC1 [Example 69] | 2000 |
| CC(=O)N1CC[C@H](c2nc3c(N)nc4cc(-c5cc[nH]n5)ccc4c3[nH]2)C1 [Example 71] | 4900 |

| Compound | EC50 [nM] |
| --- | --- |
| CC(C)C(=O)N1CC[C@H](c2nc3c(N)nc4cc(-c5cc[nH]n5)ccc4c3[nH]2)C1 [Example 72] | 3100 |
| Nc1nc2cc(-c3cc[nH]n3)ccc2c2[nH]c([C@H]3CCN(C(=O)CC(F)(F)F)C3)nc12 [Example 74] | 6800 |
| N#CC1(C(=O)N2CC[C@H](c3nc4c(N)nc5cc(-c6cc[nH]n6)ccc5c4[nH]3)C2)CC1 [Example 75] | 5000 |
| Nc1nc2cc(-c3cc[nH]n3)ccc2c2[nH]c([C@H]3CCN(C(=O)c4ccccc4)C3)nc12 [Example 76] | 5500 |
| Nc1nc2cc(-c3cc[nH]n3)ccc2c2[nH]c([C@@H]3CCN(C(=O)c4ccccc4)C3)nc12 [Example 77] | 4100 |
| CCCC(=O)N1CCC[C@@H]1Cc1nc2c(N)nc3cc(-c4cc[nH]n4)ccc3c2[nH]1 [Example 78] | 5800 |
| CC(C)C(=O)N1CCC[C@@H]1Cc1nc2c(N)nc3cc(-c4cc[nH]n4)ccc3c2[nH]1 [Example 79] | 1600 |
| COCC(=O)N1CCC[C@@H]1Cc1nc2c(N)nc3cc(-c4cc[nH]n4)ccc3c2[nH]1 [Example 80] | 6600 |
| Nc1nc2cc(-c3cc[nH]n3)ccc2c2[nH]c(C[C@H]3CCCN3C(=O)C3(C(F)(F)F)CC3)nc12 [Example 81] | 4000 |
| N#CC1(C(=O)N2CCC[C@@H]2Cc2nc3c(N)nc4cc(-c5cc[nH]n5)ccc4c3[nH]2)CCC1 [Example 82] | 2600 |
| N#CC1(C(=O)N2CCC[C@@H]2Cc2nc3c(N)nc4cc(-c5cc[nH]n5)ccc4c3[nH]2)CCCC1 [Example 83] | 6600 |
| Nc1nc2cc(-c3cc[nH]n3)ccc2c2[nH]c(C[C@H]3CCCN3C(=O)c3ccccc3)nc12 [Example 84] | 2500 |
| Nc1nc2cc(-c3cc[nH]n3)ccc2c2[nH]c(C[C@H]3CCCN3C(=O)c3ccccn3)nc12 [Example 85] | 5900 |
| CC(C)C(=O)N1CCC[C@H]1Cc1nc2c(N)nc3cc(-c4cc[nH]n4)ccc3c2[nH]1 [Example 86] | 6400 |
| CC(C)(C)C(=O)N1CCC[C@H]1Cc1nc2c(N)nc3cc(-c4cc[nH]n4)ccc3c2[nH]1 [Example 88] | 1900 |
| Nc1nc2cc(-c3cc[nH]n3)ccc2c2[nH]c(C[C@@H]3CCCN3C(=O)C3CCC3)nc12 [Example 89] | 2800 |
| COCCC(=O)N1CCC[C@H]1Cc1nc2c(N)nc3cc(-c4cc[nH]n4)ccc3c2[nH]1 [Example 90] | 6000 |
| Nc1nc2cc(-c3cc[nH]n3)ccc2c2[nH]c(C[C@@H]3CCCN3C(=O)C3CC3(F)F)nc12 (some centres unmarked) [Example 91] | 4100 |
| N#CC1(C(=O)N2CCC[C@H]2Cc2nc3c(N)nc4cc(-c5cc[nH]n5)ccc4c3[nH]2)CC1 [Example 92] | 9400 |
| Nc1nc2cc(-c3cc[nH]n3)ccc2c2[nH]c(C[C@@H]3CCCN3C(=O)C3(C(F)(F)F)CC3)nc12 [Example 93] | 3200 |
| N#CC1(C(=O)N2CCC[C@H]2Cc2nc3c(N)nc4cc(-c5cc[nH]n5)ccc4c3[nH]2)CCC1 [Example 94] | 6200 |
| N#CC1(C(=O)N2CCC[C@H]2Cc2nc3c(N)nc4cc(-c5cc[nH]n5)ccc4c3[nH]2)CCCC1 [Example 95] | 6500 |
| Nc1nc2cc(-c3cc[nH]n3)ccc2c2[nH]c(C[C@@H]3CCCN3C(=O)c3ccccc3)nc12 [Example 96] | 11000 |
| (S)-1-(2-((4-amino-7-(1H-pyrazol-3-yl)-1H-imidazo[4,5-c]quinolin-2-yl)methyl)pyrrolidin-1-yl)propane-1-one [Example 18] | 4900 |
| tert-Butyl 3-((4-amino-7-(1H-pyrazol-1-yl)-1H-imidazo[4,5-c]quinolin-2-yl)methyl)pyrrolidine-1-carboxylate [Example 23] | 2200 |

Reference: patent US12492200B2, “NLRP3 modulators” (INNATE TUMOR IMMUNITY, INC., priority 2020, dated 2025)
